Reference: patent US20070049593A1 (priority 2004, published 2007)
Structures can show the parent of a compound that is named as a salt.

Biological target: T1, HCV polymerase (Hepatitis C virus genotype 1b, UniProt P26663)
T1 construct: a region encoding NS5B (J Virol 1991 March, 65(3), 1105-13, 544 amino acids after deletion of 47 amino acids on the C-terminal); 6xHis (C); made in house; host or cells: Escherichia coli
Assay: biochemical
Design: species or system HCV BK strain
Settings: not given
Outline: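 Recombinant HCV BK-strain NS5B (C-terminal 47 aa deleted, His6-tagged, E. coli), 0.5 μg/ml, run with 5 μg/ml in vitro-transcribed RNA template (polyU/3′X), ATP/GTP/CTP 50 μM, UTP 2 μM plus [3H]UTP, pH 7.5, 25° C, 90 min. TCA-precipitated RNA counted by scintillation; IC50 from activity with vs without compound.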

T1 sequence (P26663 2420-2963): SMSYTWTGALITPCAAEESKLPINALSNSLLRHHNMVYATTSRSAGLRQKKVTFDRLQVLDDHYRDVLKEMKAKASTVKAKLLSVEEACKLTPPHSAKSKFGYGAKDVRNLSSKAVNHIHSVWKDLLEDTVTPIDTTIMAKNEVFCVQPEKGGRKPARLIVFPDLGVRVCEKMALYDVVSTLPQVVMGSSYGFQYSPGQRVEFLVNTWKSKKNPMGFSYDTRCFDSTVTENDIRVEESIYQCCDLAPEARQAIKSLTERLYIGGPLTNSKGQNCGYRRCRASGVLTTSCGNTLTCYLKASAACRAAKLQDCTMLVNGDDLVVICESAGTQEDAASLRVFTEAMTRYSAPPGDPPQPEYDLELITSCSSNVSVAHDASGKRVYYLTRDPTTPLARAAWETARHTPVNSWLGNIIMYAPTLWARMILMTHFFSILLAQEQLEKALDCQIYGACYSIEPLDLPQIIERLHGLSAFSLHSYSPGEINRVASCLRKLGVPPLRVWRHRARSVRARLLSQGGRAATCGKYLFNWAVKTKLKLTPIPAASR

SMILES | IC50 [nM]
Cc1ccc2c(c1)N(CCN1CCCCC1)CCn1c-2c(C2CCCCC2)c2ccc(C(=O)O)c(Cl)c21 [Example 1-451, 9-chloro-13-cyclohexyl-3-methyl-5-[2-(piperidin-1-yl)ethyl]-6,7-dihydro-5H-benzo[5,6][1,4]diazepino[7,1-a]indole-10-carboxylic acid dihydrochloride] | < 100
Cc1ccc2c(c1)N(C)CCn1c-2c(C2CCCCC2)c2ccc(C(=O)O)c(Cl)c21 [Example 1-452, 9-chloro-13-cyclohexyl-3,5-dimethyl-6,7-dihydro-5H-benzo[5,6][1,4]diazepino[7,1-a]indole-10-carboxylic acid] | < 100
CCN1CCn2c(c(C3CCCCC3)c3ccc(C(=O)O)cc32)-c2ccc(OC)cc21 [Example 1-474, 13-cyclohexyl-5-ethyl-3-methoxy-6,7-dihydro-5H-benzo[5,6][1,4]diazepino[7,1-a]indole-10-carboxylic acid] | < 100
COc1ccc2c(c1)N(C(C)C)CCn1c-2c(C2CCCCC2)c2ccc(C(=O)O)cc21 [Example 1-475, 13-cyclohexyl-5-isopropyl-3-methoxy-6,7-dihydro-5H-benzo[5,6][1,4]diazepino[7,1-a]indole-10-carboxylic acid monohydrochloride] | < 100
Cc1ccc2c(c1)N(CC(=O)N1CCCOCC1)CCn1c-2c(C2CCCCC2)c2ccc(C(=O)O)cc21 [Example 1-476, sodium salt of 13-cyclohexyl-3-methyl-5-[2-(1,4-oxazepan-4-yl)-2-oxoethyl]-6,7-dihydro-5H-benzo[5,6][1,4]diazepino[7,1-a]indole-10-carboxylic acid] | < 100
CCN1CCn2c(c(C3CCCCC3)c3ccc(C(=O)NC4(C(=O)Nc5ccc(/C=C/C(=O)O)cc5)CCC4)cc32)-c2ccc(OC)cc21 [Example 1-477, (E)-3-[4-({1-[(13-cyclohexyl-5-ethyl-3-methoxy-6,7-dihydro-5H-benzo[5,6][1,4]diazepino[7,1-a]indole-10-carbonyl)amino]cyclobutanecarbonyl}amino)phenyl]acrylic acid] | < 100
COc1ccc2c(c1)N(C(C)C)CCn1c-2c(C2CCCCC2)c2ccc(C(=O)NC3(C(=O)Nc4ccc(/C=C/C(=O)O)cc4)CCC3)cc21 [Example 1-478, (E)-3-[4-({1-[(13-cyclohexyl-5-isopropyl-3-methoxy-6,7-dihydro-5H-benzo[5,6][1,4]diazepino[7,1-a]indole-10-carbonyl)amino]cyclobutanecarbonyl}amino)phenyl]acrylic acid] | < 100
COCCN1CCn2c(c(C3CCCCC3)c3ccc(C(=O)O)cc32)-c2ccc(OC)cc21 [Example 1-479, 13-cyclohexyl-3-methoxy-5-(2-methoxyethyl)-6,7-dihydro-5H-benzo[5,6][1,4]diazepino[7,1-a]indole-10-carboxylic acid] | < 100
COc1ccc2c(c1)N(CCOC(C)C)CCn1c-2c(C2CCCCC2)c2ccc(C(=O)O)cc21 [Example 1-480, 13-cyclohexyl-5-(2-isopropoxyethyl)-3-methoxy-6,7-dihydro-5H-benzo[5,6][1,4]diazepino[7,1-a]indole-10-carboxylic acid] | < 100
COCCN1CCn2c(c(C3CCCCC3)c3ccc(C(=O)NC4(C(=O)Nc5ccc(/C=C/C(=O)O)cc5)CCC4)cc32)-c2ccc(OC)cc21 [Example 1-481, (E)-3-{4-[(1-{[13-cyclohexyl-3-methoxy-5-(2-methoxyethyl)-6,7-dihydro-5H-benzo[5,6][1,4]diazepino[7,1-a]indole-10-carbonyl]amino}cyclobutanecarbonyl)amino]phenyl}acrylic acid] | < 100
COc1ccc2c(c1)N(CCOC(C)C)CCn1c-2c(C2CCCCC2)c2ccc(C(=O)NC3(C(=O)Nc4ccc(/C=C/C(=O)O)cc4)CCC3)cc21 [Example 1-482, (E)-3-{4-[(1-{[13-cyclohexyl-5-(2-isopropoxyethyl)-3-methoxy-6,7-dihydro-5H-benzo[5,6][1,4]diazepino[7,1-a]indole-10-carbonyl]amino}cyclobutanecarbonyl)amino]phenyl}acrylic acid] | < 100
COc1ccc2c(c1)N(CC(C)C)CCn1c-2c(C2CCCCC2)c2ccc(C(=O)O)cc21 [Example 1-483, 13-cyclohexyl-5-isobutyl-3-methoxy-6,7-dihydro-5H-benzo[5,6][1,4]diazepino[7,1-a]indole-10-carboxylic acid] | < 100
COc1ccc2c(c1)N(CC(C)C)CCn1c-2c(C2CCCCC2)c2ccc(C(=O)NC3(C(=O)Nc4ccc(/C=C/C(=O)O)cc4)CCC3)cc21 [Example 1-484, (E)-3-[4-({1-[(13-cyclohexyl-5-isobutyl-3-methoxy-6,7-dihydro-5H-benzo[5,6][1,4]diazepino[7,1-a]indole-10-carbonyl)amino]cyclobutanecarbonyl}amino)phenyl]acrylic acid] | < 100
O=C(O)c1ccc2c(C3CCCCC3)c3n(c2c1)CCN(CCN1CCC[C@H](COc2ccccc2)C1)c1ccccc1-3 [Example 1-485, 13-cyclohexyl-5-[2-((S)-3-phenoxymethylpiperidin-1-yl)ethyl]-6,7-dihydro-5H-benzo[5,6][1,4]diazepino[7,1-a]indole-10-carboxylic acid dihydrochloride] | < 100
O=C(O)c1ccc2c(C3CCCCCC3)c3n(c2c1)CCN(CCN1CCCCC1)c1cc(Cl)ccc1-3 [Example 1-486, 3-chloro-13-cycloheptyl-5-[2-(piperidin-1-yl)ethyl]-6,7-dihydro-5H-benzo[5,6][1,4]diazepino[7,1-a]indole-10-carboxylic acid] | < 100
Cc1ccc2c(c1)N(CCC13CCC(CC1)N3Cc1ccccc1)CCn1c-2c(C2CCCCC2)c2ccc(C(=O)O)cc21 [Example 1-487, 5-[2-(7-benzyl-7-azabicyclo[2.2.1]hept-1-yl)ethyl]-13-cyclohexyl-3-methyl-6,7-dihydro-5H-benzo[5,6][1,4]diazepino[7,1-a]indole-10-carboxylic acid] | < 100
Cc1ccc2c(c1)N(CCC13CCC(CC1)N3)CCn1c-2c(C2CCCCC2)c2ccc(C(=O)O)cc21 [Example 1-488, 5-[2-(7-azabicyclo[2.2.1]hept-1-yl)ethyl]-13-cyclohexyl-3-methyl-6,7-dihydro-5H-benzo[5,6][1,4]diazepino[7,1-a]indole-10-carboxylic acid monohydrochloride] | < 100
Cc1ccc2c(c1)N(CCC13CCC(CC1)N3CC(=O)O)CCn1c-2c(C2CCCCC2)c2ccc(C(=O)O)cc21 [Example 1-489, 5-[2-(7-carboxymethyl-7-azabicyclo[2.2.1]hept-1-yl)ethyl]-13-cyclohexyl-3-methyl-6,7-dihydro-5H-benzo[5,6][1,4]diazepino[7,1-a]indole-10-carboxylic acid] | < 100
N#Cc1ccc2c(c1)N(CCN1CCCCC1)CCn1c-2c(C2CCCCC2)c2ccc(C(=O)O)cc21 [Example 1-490, 3-cyano-13-cyclohexyl-5-[2-(piperidin-1-yl)ethyl]-6,7-dihydro-5H-benzo[5,6][1,4]diazepino[7,1-a]indole-10-carboxylic acid monohydrochloride] | < 100

Same assay, conditions: 25° C., 90 min; [5,6-3H]UTP incorporation into RNA; read-out: HCV polymerase inhibitory activity IC50

SMILES | IC50 [nM]
COC(=O)C(Cc1ccc(O)cc1)NC(=O)c1ccc2c(C3CCCCC3)c3n(c2c1)CCN(C)c1cc(C)ccc1-3 [Example 1-473, methyl (S)-2-[(13-cyclohexyl-3,5-dimethyl-6,7-dihydro-5H-benzo[5,6][1,4]diazepino[7,1-a]indole-10-carbonyl)amino]-3-(4-hydroxyphenyl)propionate] | < 100
